Data from patent publication US20240293387A1, “Methods of Treating Fabry Disease in Pediatric Patients” (Amicus Therapeutics, Inc., priority 2021, published 2024).

Key:
[1] = AT1001-020 Stage 1 pharmacokinetics (sparse plasma sampling, LC-MS/MS, popPK); type: in vivo, human
Experimental: Migalastat levels can be measured via methods known in the art. For example, if measuring migalastat from tissue samples, tissue aliquots may be homogenized (7 μL water per 1 mg tissue) using a homogenizer (e.g., FastPrep-24 from MP Biomedical, Irvine, CA). Microcentrifuge tubes containing 100 μl of the tissue homogenate or 50 μl of plasma may then be spiked with 500 ng/ml 13C d2-AT1001 HCl internal standard (manufactured by MDS Pharma Services). A 600 μl volume of 5 mM HCl in 95/5 MeOH:H2O can then be added and the tubes vortexed for 2 minutes, followed by centrifugation at 21000×g for 10 minutes at room temperature. […] After several wash steps and elution into a clean, 96-well plate, the extracts may be dried down under N2 and reconstituted with mobile phase A. Migalastat levels can then be determined by liquid chromatography-tandem mass spectroscopy (LC-MS/MS) (e.g., LC: Shimadzu; MS/MS: ABSciex API 5500 MS/MS). […] The following precursor ion->product ion transitions may be monitored: mass/charge (m/z) 164.1→m/z 80.1 for migalastat and m/z 167.1→m/z 83.1 for the internal standard. […] The ratio of the area under the curve for migalastat to that of the internal standard is then determined and final concentrations of migalastat in each sample calculated using the linear least squares fit equation applied to the calibration curve. […]
Plasma samples were analyzed using the LC-MS/MS method. […]

[2] = test system: pediatric subjects with Fabry disease and amenable GLA variants; assay: AT1001-020 Stage 1 safety in pediatric subjects (interim analysis)
Experimental: All safety analyses were performed using the safety population.
During Stage 1, urinalysis (albumin, protein, specific gravity, pH, and microscopy) was the only laboratory parameter collected at Month 1 and therefore, the only laboratory parameter assessed for the Interim Analysis.

[3] = Safety Population (N = 9), Stage 1

Structure (SMILES): OC[C@H]1NC[C@H](O)[C@@H](O)[C@H]1O [migalastat, (2R,3S,4R,5S)-2-(hydroxymethyl) piperdine-3,4,5-triol]
- Cmax levels observed in the pediatric patients versus adults in study AT1001-011 ([1]; 123 mg capsule QOD): in line with the Cmax levels observed in adults patients
- Exposure in adults and adolescents weighing >45 kg (popPK) ([1]; 123 mg capsule q.o.d., adolescent patients (n=9)): comparable
- Changes in mean values from baseline for urinalysis parameters ([2]; Month 1): no clinically meaningful changes
- Subjects with urine pH from normal at baseline to high at Month 1 ([2]; Safety Population (N = 9)): Three
- Number of subjects discontinued due to TEAEs [2, 3]: 0 n (%)
- Number of subjects with AEs leading to death [2, 3]: 0 n (%)
- Number of subjects with TEAEs [2, 3]: 5 (55.6) n (%)
- Number of subjects with related TEAEs [2, 3]: 1 (11.1) n (%)
- Number of subjects with treatment-emergent SAEs [2, 3]: 0 n (%)
- Number of TEAEs ([2]; Safety Population (N = 9), Stage 1, 123 mg capsule QOD): 6 n
- Drug eruption, Number of Events ([2]; Safety Population, Stage 1): 1 (16.7) n (%)
- Drug eruption, Number of Subjects ([2]; Safety Population, Stage 1): 1 (11.1) n (%)
- Headache, Number of Events ([2]; Safety Population, Stage 1): 1 (16.7) n (%)
- Headache, Number of Subjects ([2]; Safety Population, Stage 1): 1 (11.1) n (%)
- Infections and infestations, Number of Events ([2]; Safety Population, Stage 1): 4 (66.7) n (%)
- Infections and infestations, Number of Subjects ([2]; Safety Population, Stage 1): 4 (44.4) n (%)
- Nervous system disorders, Number of Events ([2]; Safety Population, Stage 1): 1 (16.7) n (%)
- Nervous system disorders, Number of Subjects ([2]; Safety Population, Stage 1): 1 (11.1) n (%)
- Pharyngitis, Number of Events ([2]; Safety Population, Stage 1): 1 (16.7) n (%)
- Pharyngitis, Number of Subjects ([2]; Safety Population, Stage 1): 1 (11.1) n (%)
- Skin and subcutaneous tissue disorders, Number of Events ([2]; Safety Population, Stage 1): 1 (16.7) n (%)
- Skin and subcutaneous tissue disorders, Number of Subjects ([2]; Safety Population, Stage 1): 1 (11.1) n (%)
- Upper respiratory tract infection, Number of Events ([2]; Safety Population, Stage 1): 3 (50.0) n (%)
- Upper respiratory tract infection, Number of Subjects ([2]; Safety Population, Stage 1): 3 (33.3) n (%)
- Potentially clinically significant abnormalities in urinalysis parameters ([2]; Stage 1): no potentially clinically significant abnormalities
- New safety findings ([2]; Stage 1, 123 mg, pediatric patients aged ≥12 to 16 years): No new safety findings
